Test results published in patent US12595281B2, “Indodicarbocyanine phosphoramidites with bathochromically shifted absorption and emission, and tunable hydrophobicity” (The Government of the United States of America, as …, priority 2022, dated 2026).

Assay: Methanol content to elute DNA-dye sequences from reverse phase HPLC column
Type: physicochemical
Conditions: average over sequences HJA-D and HJAcomp containing the dye
Experimental: Desalted oligo solutions were then analyzed by liquid chromatography-mass spectrometry (LCMS, see Characterization below for more detail) to confirm the presence of correct sequence in the crude product. Samples containing the confirmed dye-labeled DNA sequences were then pooled and purified by preparatory scale reverse phase HPLC (2707 Autosampler, 2545 Quaternary Gradient Module, 2998 Photodiode Array Detector, and Fraction Collector III, Waters, Inc, Milford, MA) using an XBridge OST C18 OBD 19×50 mm column (Part No. 186008962, Waters, Inc, Milford, MA) with a gradient of increasing methanol in 0.1 M TEAA (aq.). For Cy5-hex, Cy5-Peg and Cy5-tBu containing sequences, LC fractions were concentrated to dryness directly from the 0.1 M TEAA buffer/methanol solution. […] Dried LC fractions were reconstituted in small volumes of water (Optima Grade), to keep concentration sufficiently high (25-50 μM) to visualize and separate low percentage impurities on LCMS. Purified fractions were combined, concentrated, then re-analyzed via LCMS for a final purity assessment.
Due to the overall poor solubility of the parent cyanine dye derivatives in water, the octanol-water partition coefficient (log P) could not be determined by the traditional “shake flask” method. In lieu of this approach, modelling software developed by Advanced Chemistry Development, Inc. was used to predict the partition coefficient and solubility in water (log S0), as shown in Table 2. As an additional means of comparison with direct relevance to the final intended utility of these oligos, the average concentration of methanol required to elute the DNA sequences containing the given dye from the reverse phase HPLC column was determined (the greater the methanol content required to elute, the more hydrophobic the dye). The DNA-dye sequences were utilized for this instead of the free dyes because they are capable of eluting at lower methanol content, but the hydrophobic character of the dye still dominates the elution profile. […] This is in close agreement with the relative “stickiness” of the DNA-dye sequences towards […] stationary phase.

Row | SMILES | Av. % MeOH for DNA-dye elution [%]
1 | COc1ccc(C(OCCCN2C(=CC=CC=CC3=[N+](CCCO)c4ccc(Cl)cc4C3(C)C)C(C)(C)c3cc(Cl)ccc32)(c2ccccc2)c2ccccc2)cc1.[I-] [Cy5-Cl, 5,5′-dichloro-1-(3-hydroxypropyl)-1′-(3-monomethoxytritylpropyl)-tetramethyl-dicarboindocyanine iodide] | 30.5
2 | CCCCCCOc1ccc2c(c1)C(C)(C)C(=CC=CC=CC1=[N+](CCCO)c3ccc(OCCCCCC)cc3C1(C)C)N2CCCOC(c1ccccc1)(c1ccccc1)c1ccc(OC)cc1.[I-] [Cy5-hex, 1-(3-hydroxypropyl)-1′-(3-monomethoxytritylpropyl)-5,5′-bis(n-hexyloxy)-3,3,3′,3′-tetramethyl-dicarboindocyanine iodide] | 51
3 | COc1ccc(C(OCCCN2C(=CC=CC=CC3=[N+](CCCO)c4ccc(C(C)(C)C)cc4C3(C)C)C(C)(C)c3cc(C(C)(C)C)ccc32)(c2ccccc2)c2ccccc2)cc1.[I-] [Cy5-tBu, 1-(3-hydroxypropyl)-1′-(3-monomethoxytritylpropyl)-5,5′-bis(tert-butyl)-3,3,3′,3′-tetramethyl-dicarboindocyanine iodide] | 41
4 | COCCOCCOCCOc1ccc2c(c1)C(C)(C)C(=CC=CC=CC1=[N+](CCCO)c3ccc(OCCOCCOCCOC)cc3C1(C)C)N2CCCOC(c1ccccc1)(c1ccccc1)c1ccc(OC)cc1.[I-] [Cy5-Peg, 1-(3-hydroxypropyl)-1′-(3-monomethoxytritylpropyl)-5,5′-bis{2-[2-(2-methoxyethoxy)ethoxy]ethoxy}-3,3,3′,3′-tetramethyl-dicarboindocyanine iodide] | 31.5
